Measured values published in patent US4564627A, “Feed composition” (Nihon Nohyaku Co., Ltd., priority 1982, dated 1986).

Experiments:
LD50 mouse (male) = settings: in vivo
Description: Examples of the compounds represented by the general formula [1] according to this invention and their toxicities are shown below.

[1] = Growth of body weight of broilers (Test Example 1); assay type: in vivo, "A A Fuji" broilers (chicken); settings: for Body weight at week age 0: week age 0 (before addition); for Body weight at week age 3: week age 3 (start of addition)
Experimental: (§1) To each group consisting of 30 "A A Fuji" broilers (15 male, 15 female), a commercially available early period broiler feed (crumble form, Cp 22%, ME 3,030 kcal/kg) was given from beginning of feeding to 4 week age, and a latter period broiler feed (mash form, Cp 18%, ME 3,030 kcal/kg) was given ad libitum from 4 week age to 10 week age. The test period was from Oct. 10, 1981 through Dec. 20, 1981. Addition of test compounds to the above feeds in predetermined concentrations was conducted from 3 week age through the completion of the test.
(1) Growth of body weight
[…] All broilers were measured and an average body weight was calculated for each group.

broilers [2] = test: Abdominal fat deposit of broilers (Test Example 1); assay type: in vivo, "A A Fuji" broilers (chicken)
Experimental: as §1
(§2) Five broilers at 6 week age, five broilers at 8 week age and ten broilers at 10 week age were taken out from each group and slaughtered. Immediately after slaughtering, they were cooled in water for about 2 hr and the body weight of each slaughtered broiler was measured and subsequently they were stored at 2° C. for about 20 hr. Then, in order to measure abdominal fat, mesentary fat was removed and fat adhered to from gizzard to proventriculus was collected and weighed as the weight of abdominal fat. This weight was divided by body weight to obtain abdominal fat deposit per 100 g of body weight. Further, liver fat was also collected and weighed. A liver under freeze storage was cut into slices in a total quantity of 2 to 3 g. The slices were placed in a cylindrical filter paper and weighed. Then, these slices were dried for 3 hr in a hot air drier kept at 90° C. and subsequently extracted for 17 hr with ethyl ether in a Soxhlet fat extractor. After drying the extract for 3 hr at 60° C. and weighing the residue, crude fat content in liver was calculated.

broilers [3] = test: Crude fat content in liver of broilers (Test Example 1); assay type: in vivo, "A A Fuji" broilers (chicken)
Experimental: as §1, §2

laying hens [4] = test: Thickness of eggshell of laying hens (Test Example 2); assay type: in vivo
Description: (§3) As test hens, commercially available laying hens of 480 day age were used. The control group fed with a feed not containing any compound of this invention consisted of 100 laying hens, and each test group fed with a feed containing a compound of this invention consisted of 10 laying hens. The test was repeated twice. The test period was 16 weeks from Nov. 17, 1981 to Mar. 8, 1982. The first 4 weeks from the start was a preliminary observation period, during which each group was controlled so as to give the same egg production rate. As the feed, a commercially available feed for laying hens (Cp 16% or above, ME 2,800 kcal/kg or above) was used. From the 5th week, predetermined quantities of test compounds were uniformly added to this feed and the resulting blended feeds were given to test groups. Feeds and water were given ad libitum. Constant lighting was made for 14 hr a day. Egg production rate was daily recorded for each individual hen and egg weight for each test group. Feed intake quantity was obtained by calculating on every other week a difference between quantity fed and quantity left. For examining egg quality, strength of eggshell and thickness of eggshell were measured for all normal eggs laid during a period of the previous day of measurement to 3 P.M. of the measurement day. Strength of eggshell was measured by a FHK eggshell strength tester model FN-597, and thickness of eggshell by a dial thickness gauge.

laying hens [5] = test: Strength of eggshell of laying hens (Test Example 2); assay type: in vivo
Description: as §3

Compound: CC(C)OC(=O)C(C(=O)OC(C)C)=C1SCCS1 [compound 6]
- LD50 (LD50 mouse (male)): 1350 mg/kg
- Body weight at week age 0 ([1]; 100 ppm in feed from 3 week age): 41 g
- Body weight at week age 0 ([1]; 200 ppm in feed from 3 week age): 41 g
- Body weight at week age 0 ([1]; 400 ppm in feed from 3 week age): 41 g
- Body weight at week age 0 ([1]; 800 ppm in feed from 3 week age): 41 g
- Body weight at week age 0 ([1]; 1,600 ppm in feed from 3 week age): 41 g
- Body weight at week age 3 ([1]; 100 ppm in feed): 628 g
- Body weight at week age 3 ([1]; 200 ppm in feed): 623 g
- Body weight at week age 3 ([1]; 400 ppm in feed): 624 g
- Body weight at week age 3 ([1]; 800 ppm in feed): 622 g
- Body weight at week age 3 ([1]; 1,600 ppm in feed): 624 g
- Body weight at week age 4 ([1]; 100 ppm in feed): 978 g
- Body weight at week age 4 ([1]; 200 ppm in feed): 983 g
- Body weight at week age 4 ([1]; 400 ppm in feed): 984 g
- Body weight at week age 4 ([1]; 800 ppm in feed): 981 g
- Body weight at week age 4 ([1]; 1,600 ppm in feed): 980 g
- Body weight at week age 5 ([1]; 100 ppm in feed): 1,326 g
- Body weight at week age 5 ([1]; 200 ppm in feed): 1,340 g
- Body weight at week age 5 ([1]; 400 ppm in feed): 1,338 g
- Body weight at week age 5 ([1]; 800 ppm in feed): 1,332 g
- Body weight at week age 5 ([1]; 1,600 ppm in feed): 1,328 g
- Body weight at week age 6 ([1]; 100 ppm in feed): 1,672 g
- Body weight at week age 6 ([1]; 200 ppm in feed): 1,662 g
- Body weight at week age 6 ([1]; 400 ppm in feed): 1,652 g
- Body weight at week age 6 ([1]; 800 ppm in feed): 1,657 g
- Body weight at week age 6 ([1]; 1,600 ppm in feed): 1,663 g
- Body weight at week age 7 ([1]; 100 ppm in feed): 2,602 g
- Body weight at week age 7 ([1]; 200 ppm in feed): 2,108 g
- Body weight at week age 7 ([1]; 400 ppm in feed): 2,112 g
- Body weight at week age 7 ([1]; 800 ppm in feed): 2,063 g
- Body weight at week age 7 ([1]; 1,600 ppm in feed): 2,102 g
- Body weight at week age 8 ([1]; 100 ppm in feed): 2,492 g
- Body weight at week age 8 ([1]; 200 ppm in feed): 2,487 g
- Body weight at week age 8 ([1]; 400 ppm in feed): 2,505 g
- Body weight at week age 8 ([1]; 800 ppm in feed): 2,501 g
- Body weight at week age 8 ([1]; 1,600 ppm in feed): 2,483 g
- Body weight at week age 9 ([1]; 100 ppm in feed): 2,880 g
- Body weight at week age 9 ([1]; 200 ppm in feed): 2,873 g
- Body weight at week age 9 ([1]; 400 ppm in feed): 2,865 g
- Body weight at week age 9 ([1]; 800 ppm in feed): 2,858 g
- Body weight at week age 9 ([1]; 1,600 ppm in feed): 2,864 g
- Body weight at week age 10 ([1]; 100 ppm in feed): 3,107 g
- Body weight at week age 10 ([1]; 200 ppm in feed): 3,112 g
- Body weight at week age 10 ([1]; 400 ppm in feed): 3,086 g
- Body weight at week age 10 ([1]; 800 ppm in feed): 3,024 g
- Body weight at week age 10 ([1]; 1,600 ppm in feed): 3,033 g
- Abdominal fat deposit (broilers [2]; 6w, 100 ppm in feed): 3.23 g/100 g
- Abdominal fat deposit (broilers [2]; 6w, 200 ppm in feed): 3.24 g/100 g
- Abdominal fat deposit (broilers [2]; 6w, 400 ppm in feed): 3.08 g/100 g
- Abdominal fat deposit (broilers [2]; 6w, 800 ppm in feed): 3.14 g/100 g
- Abdominal fat deposit (broilers [2]; 6w, 1,600 ppm in feed): 3.04 g/100 g
- Abdominal fat deposit (broilers [2]; 8w, 100 ppm in feed): 3.72 g/100 g
- Abdominal fat deposit (broilers [2]; 8w, 200 ppm in feed): 3.64 g/100 g
- Abdominal fat deposit (broilers [2]; 8w, 400 ppm in feed): 3.38 g/100 g
- Abdominal fat deposit (broilers [2]; 8w, 800 ppm in feed): 3.35 g/100 g
- Abdominal fat deposit (broilers [2]; 8w, 1,600 ppm in feed): 3.32 g/100 g
- Abdominal fat deposit (broilers [2]; 10w, 100 ppm in feed): 4.18 g/100 g
- Abdominal fat deposit (broilers [2]; 10w, 200 ppm in feed): 4.03 g/100 g
- Abdominal fat deposit (broilers [2]; 10w, 400 ppm in feed): 3.97 g/100 g
- Abdominal fat deposit (broilers [2]; 10w, 800 ppm in feed): 3.85 g/100 g
- Abdominal fat deposit (broilers [2]; 10w, 1,600 ppm in feed): 3.78 g/100 g
- Crude fat content in liver (broilers [3]; 6w, 100 ppm in feed): 2.23%
- Crude fat content in liver (broilers [3]; 6w, 200 ppm in feed): 2.03%
- Crude fat content in liver (broilers [3]; 6w, 400 ppm in feed): 2.15%
- Crude fat content in liver (broilers [3]; 6w, 800 ppm in feed): 2.14%
- Crude fat content in liver (broilers [3]; 6w, 1,600 ppm in feed): 2.08%
- Crude fat content in liver (broilers [3]; 8w, 100 ppm in feed): 5.51%
- Crude fat content in liver (broilers [3]; 8w, 200 ppm in feed): 4.97%
- Crude fat content in liver (broilers [3]; 8w, 400 ppm in feed): 4.53%
- Crude fat content in liver (broilers [3]; 8w, 800 ppm in feed): 4.26%
- Crude fat content in liver (broilers [3]; 8w, 1,600 ppm in feed): 4.32%
- Crude fat content in liver (broilers [3]; 10w, 100 ppm in feed): 5.09%
- Crude fat content in liver (broilers [3]; 10w, 200 ppm in feed): 4.33%
- Crude fat content in liver (broilers [3]; 10w, 400 ppm in feed): 4.26%
- Crude fat content in liver (broilers [3]; 10w, 800 ppm in feed): 4.33%
- Crude fat content in liver (broilers [3]; 10w, 1,600 ppm in feed): 4.32%
- Eggshell thickness (laying hens [4]; 509th day, 5 ppm in feed): 0.328 mm
- Eggshell thickness (laying hens [4]; 509th day, 25 ppm in feed): 0.345 mm
- Eggshell thickness (laying hens [4]; 509th day, 125 ppm in feed): 0.343 mm
- Eggshell thickness (laying hens [4]; 509th day, 625 ppm in feed): 0.325 mm
- Eggshell thickness (laying hens [4]; 555th day, 5 ppm in feed): 0.341 mm
- Eggshell thickness (laying hens [4]; 555th day, 25 ppm in feed): 0.345 mm
- Eggshell thickness (laying hens [4]; 555th day, 125 ppm in feed): 0.340 mm
- Eggshell thickness (laying hens [4]; 555th day, 625 ppm in feed): 0.346 mm
- Eggshell thickness (laying hens [4]; 612th day, 5 ppm in feed): 0.344 mm
- Eggshell thickness (laying hens [4]; 612th day, 25 ppm in feed): 0.341 mm
- Eggshell thickness (laying hens [4]; 612th day, 125 ppm in feed): 0.342 mm
- Eggshell thickness (laying hens [4]; 612th day, 625 ppm in feed): 0.348 mm
- Eggshell strength (laying hens [5]; 509th day, 5 ppm in feed): 2.40 kg
- Eggshell strength (laying hens [5]; 509th day, 25 ppm in feed): 2.47 kg
- Eggshell strength (laying hens [5]; 509th day, 125 ppm in feed): 2.39 kg
- Eggshell strength (laying hens [5]; 509th day, 625 ppm in feed): 2.42 kg
- Eggshell strength (laying hens [5]; 555th day, 5 ppm in feed): 2.75 kg
- Eggshell strength (laying hens [5]; 555th day, 25 ppm in feed): 2.88 kg
- Eggshell strength (laying hens [5]; 555th day, 125 ppm in feed): 2.95 kg
- Eggshell strength (laying hens [5]; 555th day, 625 ppm in feed): 3.01 kg
- Eggshell strength (laying hens [5]; 612th day, 5 ppm in feed): 2.74 kg
- Eggshell strength (laying hens [5]; 612th day, 25 ppm in feed): 2.99 kg
- Eggshell strength (laying hens [5]; 612th day, 125 ppm in feed): 3.11 kg
- Eggshell strength (laying hens [5]; 612th day, 625 ppm in feed): 3.07 kg
